Results as given in ChEMBL document CHEMBL3217590, “Discovery of a new class of dithiocarbamates and rhodanine scaffolds as potent antifungal agents: synthesis, biology and molecular docking” (Medchemcomm, 2012).
Values after ≈ are worked out from the molar mass of the structure shown.

How the values were obtained:
[1] = test system: Trichophyton mentagrophytes; assay: Antifungal activity against Trichophyton mentagrophytes after 72 to 96 hrs by broth microdilution technique; format: functional
Cryptococcus neoformans = assay: Antifungal activity against Cryptococcus neoformans after 24 to 48 hrs by broth microdilution technique; format: functional
Aspergillus fumigatus = assay: Antifungal activity against Aspergillus fumigatus after 72 to 96 hrs by broth microdilution technique; format: functional
Sporothrix schenckii [2] = assay: Antifungal activity against Sporothrix schenckii after 72 to 96 hrs by broth microdilution technique; format: functional
Candida albicans [3] = assay: Antifungal activity against Candida albicans after 24 to 48 hrs by broth microdilution technique; format: functional
Candida parapsilosis = assay: Antifungal activity against Candida parapsilosis ATCC22019 after 24 to 48 hrs by broth microdilution technique; format: functional; details: Lodderomyces parapsilosis
Candida albicans [4] = assay: Anticandidal activity against Candida albicans ATCC-MYA 2950 after 24 to 48 hrs by broth microdilution technique; format: functional
L929 [5] = assay: Cytotoxicity against mouse L929 cells assessed as morphological changes up to 3.12 ug/ml after 24 hrs by giemsa staining based phase contrast microscopy; format: cell-based; details: l929, 24 h
Candida albicans [6] = assay: Anticandidal activity against Candida albicans ATCC750 after 24 to 48 hrs by broth microdilution technique; format: functional
Candida albicans [7] = assay: Anticandidal activity against Candida albicans ATCC14053 after 24 to 48 hrs by broth microdilution technique; format: functional
L929 [8] = assay: Cytotoxicity against mouse L929 cells assessed as decline in cell survival at 12.5 to 50 ug/ml after 24 hrs by spectrophotometric analysis; format: cell-based; details: l929, 24 h
Candida albicans [9] = assay: Ratio of fluconazole MIC to compound MIC against amphotericin-B resistant Candida albicans after 24 to 48 hrs by broth microdilution technique; format: functional
Candida albicans [10] = assay: Anticandidal activity against Candida albicans ATCC10231 after 24 to 48 hrs by broth microdilution technique; format: functional
Candida albicans [11] = assay: Anticandidal activity against Candida albicans isolated from patient after 24 to 48 hrs by broth microdilution technique; format: functional
Candida albicans [12] = assay: Anticandidal activity against Candida albicans MTCC183 after 24 to 48 hrs by broth microdilution technique; format: functional
Candida albicans [13] = assay: Anticandidal activity against amphotericin-B resistant Candida albicans after 24 to 48 hrs by broth microdilution technique; format: functional
Candida albicans [14] = assay: Anticandidal activity against Candida albicans CDRI after 24 to 48 hrs by broth microdilution technique; format: functional
Sporothrix schenckii [15] = assay: Ratio of clotrimazole MIC to compound MIC against Sporothrix schenckii after 72 to 96 hrs by broth microdilution technique; format: functional
Sporothrix schenckii [16] = assay: Ratio of fluconazole MIC to compound MIC against Sporothrix schenckii after 72 to 96 hrs by broth microdilution technique; format: functional

Row | MIC [1] [µg/mL] | MIC (Cryptococcus neoformans) [µg/mL] | MIC (Aspergillus fumigatus) [µg/mL] | MIC (Sporothrix schenckii [2]) [µg/mL] | MIC (Candida albicans [3]) [µg/mL] | MIC (Candida parapsilosis) [µg/mL] | Structure (SMILES) | MIC (Candida albicans [4]) [µg/mL] | Activity (L929 [5]) | MIC (Candida albicans [6]) [µg/mL] | MIC (Candida albicans [7]) [µg/mL] | Activity (L929 [8]) | Ratio (Candida albicans [9]) | MIC (Candida albicans [10]) [µg/mL] | MIC (Candida albicans [11]) [µg/mL] | MIC (Candida albicans [12]) [µg/mL] | MIC (Candida albicans [13]) [µg/mL] | MIC (Candida albicans [14]) [µg/mL] | Ratio (Sporothrix schenckii [15]) | Ratio (Sporothrix schenckii [16])
1 | 50 (≈ 124 µM) | 50 (≈ 124 µM) | > 50 | 25 (≈ 62.1 µM) | 12.5 (≈ 31.1 µM) | 50 (≈ 124 µM) | COc1cc(/C=C2\SC(=S)N(Cc3ccncc3)C2=O)cc(OC)c1OC | – | – | – | – | – | – | – | – | – | – | – | – | –
2 | 50 (≈ 160 µM) | 50 (≈ 160 µM) | > 50 | 25 (≈ 80 µM) | 25 (≈ 80 µM) | 50 (≈ 160 µM) | O=C1/C(=C/c2ccccc2)SC(=S)N1Cc1ccncc1 | – | – | – | – | – | – | – | – | – | – | – | – | –
3 | 3.12 (≈ 9.44 µM) | 25 (≈ 75.7 µM) | > 50 | 0.39 (≈ 1.18 µM) | 12.5 (≈ 37.8 µM) | 25 (≈ 75.7 µM) | O=C1/C(=C/c2ccc(F)cc2)SC(=S)N1Cc1ccncc1 | – | Non-toxic | – | – | Toxic | – | – | – | – | – | – | 12 | 12
4 | 6.25 (≈ 18.9 µM) | 3.12 (≈ 9.44 µM) | > 50 | 1.56 (≈ 4.72 µM) | 12.5 (≈ 37.8 µM) | 50 (≈ 151 µM) | O=C1/C(=C/c2ccccc2F)SC(=S)N1Cc1ccncc1 | – | – | – | – | – | – | – | – | – | – | – | – | –
5 | > 50 | > 50 | > 50 | > 50 | 50 (≈ 144 µM) | > 50 | O=C1/C(=C/c2ccc(Cl)cc2)SC(=S)N1Cc1ccncc1 | – | – | – | – | – | – | – | – | – | – | – | – | –
6 | > 50 | > 50 | > 50 | 25 (≈ 69.9 µM) | 50 (≈ 140 µM) | > 50 | O=C1/C(=C/c2ccc([N+](=O)[O-])cc2)SC(=S)N1Cc1ccncc1 | – | – | – | – | – | – | – | – | – | – | – | – | –
7 | > 50 | > 50 | > 50 | > 50 | > 50 | > 50 | CCc1ccc(/C=C2\SC(=S)N(Cc3ccncc3)C2=O)cc1 | – | – | – | – | – | – | – | – | – | – | – | – | –

Row | Structure (SMILES) | MIC [1] [µg/mL] | MIC (Cryptococcus neoformans) [µg/mL] | MIC (Aspergillus fumigatus) [µg/mL] | MIC (Sporothrix schenckii [2]) [µg/mL] | MIC (Candida albicans [3]) [µg/mL] | MIC (Candida parapsilosis) [µg/mL] | MIC (Candida albicans [4]) [µg/mL] | Activity (L929 [5]) | MIC (Candida albicans [6]) [µg/mL] | MIC (Candida albicans [7]) [µg/mL] | Activity (L929 [8]) | Ratio (Candida albicans [9]) | MIC (Candida albicans [10]) [µg/mL] | MIC (Candida albicans [11]) [µg/mL] | MIC (Candida albicans [12]) [µg/mL] | MIC (Candida albicans [13]) [µg/mL] | MIC (Candida albicans [14]) [µg/mL] | Ratio (Sporothrix schenckii [15]) | Ratio (Sporothrix schenckii [16])
8 | CCSC(=S)NCc1ccncc1 | 3.12 (≈ 14.7 µM) | 3.12 (≈ 14.7 µM) | 50 (≈ 235 µM) | 1.56 (≈ 7.35 µM) | 3.12 (≈ 14.7 µM) | 3.12 (≈ 14.7 µM) | 12.5 (≈ 58.9 µM) | Non-toxic | 12.5 (≈ 58.9 µM) | 3.12 (≈ 14.7 µM) | Toxic | 5 | 6.25 (≈ 29.4 µM) | 12.5 (≈ 58.9 µM) | 1.56 (≈ 7.35 µM) | 1.56 (≈ 7.35 µM) | 6.25 (≈ 29.4 µM) | – | –
9 | CCCCSC(=S)NCc1ccncc1 | 3.12 (≈ 13 µM) | 3.12 (≈ 13 µM) | 50 (≈ 208 µM) | 3.12 (≈ 13 µM) | 3.12 (≈ 13 µM) | 6.25 (≈ 26 µM) | 12.5 (≈ 52 µM) | Non-toxic | 12.5 (≈ 52 µM) | 3.12 (≈ 13 µM) | Toxic | 5 | 6.25 (≈ 26 µM) | 12.5 (≈ 52 µM) | 1.56 (≈ 6.49 µM) | 1.56 (≈ 6.49 µM) | 12.5 (≈ 52 µM) | – | –
10 | S=C(NCc1ccncc1)SCc1ccccc1 | 6.25 (≈ 22.8 µM) | 1.56 (≈ 5.68 µM) | 25 (≈ 91.1 µM) | 6.25 (≈ 22.8 µM) | 1.56 (≈ 5.68 µM) | 1.56 (≈ 5.68 µM) | 1.56 (≈ 5.68 µM) | Non-toxic | 3.12 (≈ 11.4 µM) | 0.78 (≈ 2.84 µM) | Toxic | – | 1.56 (≈ 5.68 µM) | 1.56 (≈ 5.68 µM) | 0.39 (≈ 1.42 µM) | 12.5 (≈ 45.6 µM) | 1.56 (≈ 5.68 µM) | – | –
11 | FC(F)(F)c1ccc(CSC(=S)NCc2ccncc2)cc1 | 6.25 (≈ 18.3 µM) | 1.56 (≈ 4.56 µM) | 50 (≈ 146 µM) | 6.25 (≈ 18.3 µM) | 1.56 (≈ 4.56 µM) | 1.56 (≈ 4.56 µM) | 1.56 (≈ 4.56 µM) | Non-toxic | 3.12 (≈ 9.11 µM) | – | Toxic | – | – | 3.12 (≈ 9.11 µM) | 0.78 (≈ 2.28 µM) | 12.5 (≈ 36.5 µM) | 1.56 (≈ 4.56 µM) | – | –
12 | O=C1CSC(=S)N1Cc1ccncc1 | 3.12 (≈ 13.9 µM) | 6.25 (≈ 27.9 µM) | 12.5 (≈ 55.7 µM) | 1.56 (≈ 6.95 µM) | 1.56 (≈ 6.95 µM) | 6.25 (≈ 27.9 µM) | 6.25 (≈ 27.9 µM) | Non-toxic | 6.25 (≈ 27.9 µM) | 1.56 (≈ 6.95 µM) | Toxic | 2 | 6.25 (≈ 27.9 µM) | 6.25 (≈ 27.9 µM) | 0.78 (≈ 3.48 µM) | 3.12 (≈ 13.9 µM) | 6.25 (≈ 27.9 µM) | – | –
13 | O=C1/C(=C/c2ccccc2[N+](=O)[O-])SC(=S)N1Cc1ccncc1 | 6.25 (≈ 17.5 µM) | 6.25 (≈ 17.5 µM) | > 50 | 6.25 (≈ 17.5 µM) | 3.12 (≈ 8.73 µM) | 3.12 (≈ 8.73 µM) | 50 (≈ 140 µM) | – | 50 (≈ 140 µM) | – | – | 2 | – | 25 (≈ 69.9 µM) | 12.5 (≈ 35 µM) | 3.12 (≈ 8.73 µM) | 50 (≈ 140 µM) | – | –
